Results reported in patent publication US20030215462A1, “Use of UGT inhibitors to increase bioavailability” (priority 2001, published 2003).
Values after ≈ are worked out from the molar mass of the structure shown. Values joined by “and” are separate entries in the source; they are usually repeats but may differ in a detail not shown here. Identical values can stand only once.

Experiments:
[1] = system: pooled human jejunum microsomes; assay: Glucuronidation of UGT substrates by pooled human jejunum microsomes; settings: jejunum HJ61, 50 μg/ml; 2ME2 50 μM
human liver microsomes [2] = assay: Glucuronidation of UGT substrates by human liver microsomes; settings: for substrate loss, 2ME2: 2ME2 50 μM
[3] = system: UGT enzymes of human liver microsomes; assay: Inhibition of raloxifene glucuronidation (G1, G2) in human liver microsomes; assay type: biochemical
From the text: Compounds were eluted using a binary solvent gradient system. […] Solvent B was methanol. […] Detection was at 280 nm.

[4] = system: T1, UGT enzymes of human liver microsomes; assay: Inhibition of 7-HFC glucuronidation in human liver microsomes; assay type: biochemical; settings: inhibitor 500 μM; 7-HFC 50 μM, human liver microsomes 100 μg/ml, 15 min
T1 construct: percentage of control metabolism, 7-HFC glucuronidation; percentage of control metabolism, 7-HFC glucuronidation

human liver microsomes [5] = settings: cited from earlier work
[6] = humans; cited from earlier work
[7] = system: T2, UGT enzymes of human liver microsomes; assay: Inhibition of 2ME2 glucuronidation (MG1, MG2) in human liver microsomes; assay type: biochemical; settings: liver 062101, 2ME2 50 μM
T2 construct: other: liver 062101
From the text: (§1) Compounds were eluted using a binary solvent gradient system where solvent A was dilute phosphoric acid (pH 3) and solvent B was 80:20 acetonitrile-methanol. […] Detection was at 280 nm.

[8] = system: UGT enzymes of human liver microsomes; assay: as above; assay type: biochemical; settings: liver 062101, 2ME2 50 μM
From the text: as §1

in vivo = settings: female, Sprague-Dawley, rat, po, 10 mg/kg
Description: Female Sprague-Dawley rats (220-250 g body weight) with cannulae inserted into the jugular vein were purchased from Hilltop Animals Inc. (Scottsdale, Pa.). Catheter patency was maintained using a heparin lock. Animals were individually housed at 18-26° C. and allowed free movement and access to water. Rats were fed standard Laboratory Rodent Diet during a minimum 1-day acclimatization period but were fasted from at least 8 h prior to dose administration and were not administered food throughout the study.
Immediately prior to treatment, the ethanol was removed by nitrogen evaporation and rats were administered 1 ml/kg of each emulsion using a standard gavage needle. […] Blood volume was replaced with saline after each sample. Whole blood samples were collected in Microtainer® tubes (Becton-Dickinson, Franklin Lakes, N.J.) containing sodium EDTA anti-coagulant. Erythrocytes were precipitated by centrifugation (2800 rpm×10-20 min) and plasma samples were stored in the freezer prior to extraction and analysis.
Plasma samples (100 μl) were extracted by vortex mixing for 60 sec with 200 μl extraction solvent (80% acetonitrile 20% 2 mM NH4OAc pH 9) and 20 μl internal standard solution (1 μM tamoxifen in methanol). […] The lower limit of quantitation was 2 ng/ml.

[9] = biological target: T3, UGT enzymes of human liver microsomes (Homo sapiens, UniProt P16662); assay: Inhibition of zidovudine glucuronidation in human liver microsomes; assay type: biochemical; settings: liver lot 062101
T3 construct: residual metabolism (percentage of control), zidovudine glucuronidation; other: liver lot 062101; residual metabolism (percentage of control), zidovudine glucuronidation; residual metabolism (percentage of control)
T3 sequence (P16662 1-529): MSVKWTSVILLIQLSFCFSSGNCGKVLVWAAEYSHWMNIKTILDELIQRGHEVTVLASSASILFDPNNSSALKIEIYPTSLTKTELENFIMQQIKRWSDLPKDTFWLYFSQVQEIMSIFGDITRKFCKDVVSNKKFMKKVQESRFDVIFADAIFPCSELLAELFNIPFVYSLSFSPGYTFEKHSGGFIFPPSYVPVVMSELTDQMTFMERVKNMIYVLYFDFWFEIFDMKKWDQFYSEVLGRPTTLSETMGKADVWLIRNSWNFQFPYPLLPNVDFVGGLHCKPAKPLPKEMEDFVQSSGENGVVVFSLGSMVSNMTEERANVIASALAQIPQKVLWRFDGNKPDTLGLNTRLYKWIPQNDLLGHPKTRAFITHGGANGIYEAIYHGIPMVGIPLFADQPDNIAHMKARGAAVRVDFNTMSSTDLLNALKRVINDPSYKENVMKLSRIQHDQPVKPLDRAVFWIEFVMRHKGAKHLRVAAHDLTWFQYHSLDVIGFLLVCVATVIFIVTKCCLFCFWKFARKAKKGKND
Description: Compounds were eluted using a binary solvent gradient system where solvent A was dilute phosphoric acid (pH 3) and solvent B was acetonitrile.
Standardized incubations utilized 500 μM zidovudine substrate, 1 mg/ml microsomal protein, 5 mM UDPGA and a 30 min incubation time. […] Int.

[10] = system: UGT enzymes of pooled human jejunum microsomes; assay: Inhibition of 2ME2 glucuronidation (MG1) in pooled human jejunum microsomes; assay type: biochemical; settings: jejunum HJ61, 2ME2 50 μM
From the text: as §1

[11] = Solubility in microsomal incubation mixtures

COc1cc2c(cc1O)CC[C@@H]1[C@@H]2CC[C@]2(C)[C@@H](O)CC[C@@H]12 [2ME2, 2-Methoxyestradiol]
NADPH-dependent metabolism, in words (cytochrome(s) P450): Negligible NADPH-dependent metabolism
substrate loss, 2ME2 [1]: 19,797 ± 631 pmol/min/mg
total loss of 2ME2 from liver microsomal incubation after 60 min (human liver microsomes [2]; 50 μM substrate): 42%
substrate loss, 2ME2 (human liver microsomes [2]; liver lot 032101, 250 μg/ml): 1,573 ± 243 pmol/min/mg
substrate loss, 2ME2 (human liver microsomes [2]; liver lot 062101, 250 μg/ml): 1,035 ± 52 pmol/min/mg

Cc1cn([C@H]2C[C@H](N=[N+]=[N-])[C@@H](CO)O2)c(=O)[nH]c1=O [Zidovudine, zidovudine, reference compound]
% of control metabolism (SD, n = 3), raloxifene glucuronide G1 [3]: 93 (3) %
% of control metabolism (SD, n = 3), raloxifene glucuronide G2 [3]: 93 (1) %
% of control metabolism (SD, n = 3), 7-HFC glucuronidation [4]: 99 (1) %
Km (human liver microsomes [5]): 3000 to 5000 µM
absolute oral bioavailability [6]: 65% and 52-75%

O=C(c1ccc(OCCN2CCCCC2)cc1)c1c(-c2ccc(O)cc2)sc2cc(O)ccc12 [Raloxifene, raloxifene, reference compound]
residual metabolism (% of control), 2ME2 MG1 ([7]; inhibitor 25 μM): 42 (0) %
residual metabolism (% of control), 2ME2 MG2 ([7]; inhibitor 25 μM): 70 (0) %
residual metabolism (% of control), 2ME2 MG1 ([7]; inhibitor 50 μM): 32 (2) %
residual metabolism (% of control), 2ME2 MG2 ([7]; inhibitor 50 μM): 41 (2) %
residual metabolism (% of control), 2ME2 MG1 ([7]; inhibitor 100 μM): 24 (2) %
residual metabolism (% of control), 2ME2 MG2 ([7]; inhibitor 100 μM): 20 (1) %
residual metabolism (% of control), 2ME2 MG1 ([8]; inhibitor 5 μM): 77 (1) %
residual metabolism (% of control), 2ME2 MG2 ([8]; inhibitor 5 μM): 98 (1) %
residual metabolism (% of control), 2ME2 MG1 ([8]; inhibitor 10 μM): 63 (1) %
residual metabolism (% of control), 2ME2 MG2 ([8]; inhibitor 10 μM): 88 (0) %
AUC(0-t) (in vivo; Raloxifene AUC0-8): 77 ± 61 ng·h/mL
AUC(0-t) (in vivo; Raloxifene AUC0-24): 114 ± 90 ng·h/mL
residual metabolism (percentage of control), zidovudine glucuronidation ([9]; inhibitor 100 μM): 76 (3) %
residual metabolism (percentage of control), zidovudine glucuronidation ([9]; inhibitor 200 μM): 32 (4) %
residual metabolism (% of control), 2ME2 MG1 ([10]; inhibitor 5 μM): 73 (1) %
residual metabolism (% of control), 2ME2 MG1 ([10]; inhibitor 10 μM): 58 (1) %
residual metabolism (% of control), 2ME2 MG1 ([10]; inhibitor 25 μM): 31 (3) %
residual metabolism (% of control), 2ME2 MG1 ([10]; inhibitor 50 μM): 17 (0) %
residual metabolism (% of control), 2ME2 MG1 ([10]; inhibitor 100 μM): 12 (0) %
solubility in the microsomal incubation ([11]; 500 μM): insoluble
solubility ([11]; microsomal incubation mixtures): 100 µM (≈ 47.4 µg/mL)
